In ChEMBL document CHEMBL1201862, “PubChem BioAssay data set” (2004):
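How tested: cells in 96-well plates exposed to compound for 48 hours at five concentrations. Here, GI50 denotes the concentration required for 50% inhibition of growth.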 Activity calls are given as the source filed them. Rule as the data show it: active = GI50 up to about 1.1 µM and inactive = higher.

What was measured:
Experiment in all cases: inhibition of tumour cell growth, NCI panel, 48 h
NCI-H23 = test system: NCI-H23
K562 = test system: K562
SK-OV-3 = test system: SK-OV-3
TK-10 = test system: TK-10
SK-MEL-28 = test system: SK-MEL-28
UACC-257 = test system: UACC-257
OVCAR-3 = test system: OVCAR-3
CAKI-1 = test system: CAKI-1
LOX IMVI = test system: LOX IMVI
UO-31 = test system: UO-31
HL-60 = test system: HL-60
RXF 393 = test system: RXF 393
SW-620 = test system: SW-620
HCC 2998 = test system: HCC 2998
SNB-75 = test system: SNB-75
A549 = test system: A549
EKVX = test system: EKVX
NCI-H460 = test system: NCI-H460
SNB-19 = test system: SNB-19
SN12C = test system: SN12C

Structure (SMILES) | GI50 (NCI-H23) | GI50 (K562) | GI50 (SK-OV-3) | GI50 (TK-10) | GI50 (SK-MEL-28) | GI50 (UACC-257) | GI50 (OVCAR-3) | GI50 (CAKI-1) | GI50 (LOX IMVI) | GI50 (UO-31) | GI50 (HL-60) | GI50 (RXF 393) | GI50 (SW-620) | GI50 (HCC 2998) | GI50 (SNB-75) | GI50 (A549) | GI50 (EKVX) | GI50 (NCI-H460) | GI50 (SNB-19) | GI50 (SN12C)
CCOC(=O)c1csc(NC(=O)CN2CCCC2)n1 | > 100 µM (inactive) | > 100 µM (inactive) | > 100 µM (inactive) | > 100 µM (inactive) | > 100 µM (inactive) | > 100 µM (inactive) | > 100 µM (inactive) | > 100 µM (inactive) | > 100 µM (inactive) | > 100 µM (inactive) | > 100 µM (inactive) | > 100 µM (inactive) | > 100 µM (inactive) | > 100 µM (inactive) | > 100 µM (inactive) | > 100 µM (inactive) | > 100 µM (inactive) | > 100 µM (inactive) | > 100 µM (inactive) | 
O=C1CCCCCCCCCCOC(=O)CCCCCCCCCCO1 | > 100 µM (inactive) | > 100 µM (inactive) | > 100 µM (inactive) | > 100 µM (inactive) | > 100 µM (inactive) | > 100 µM (inactive) | > 100 µM (inactive) | > 100 µM (inactive) | > 100 µM (inactive) | > 100 µM (inactive) | 21.8 µM (inactive) | > 100 µM (inactive) | > 100 µM (inactive) | > 100 µM (inactive) | > 100 µM (inactive) | > 100 µM (inactive) | > 100 µM (inactive) | > 100 µM (inactive) | > 100 µM (inactive) | > 100 µM (inactive)
CC(=O)O[C@H]1CC[C@@]2(C)[C@H](CC[C@@H]3[C@@H]2CC[C@]2(C)[C@@H](c4ccc(=O)oc4)C[C@H]4O[C@]342)C1 | 0.327 µM (active) | 0.646 µM (active) | 1.83 µM (inactive) |  | 2.2 µM (inactive) | 1.06 µM (active) | 0.338 µM (active) | 0.397 µM (active) | 0.904 µM (active) | 0.791 µM (active) | 0.307 µM (active) | 0.147 µM (active) | 0.665 µM (active) | 1.33 µM (inactive) | 0.708 µM (active) | 0.213 µM (active) | 0.646 µM (active) | 0.212 µM (active) | 1.82 µM (inactive) | 0.327 µM (active)
CC(=O)NC1=C(C)C(=O)c2c(nc3n2CCC3OC(=O)c2ccccc2)C1=O (stereo unspecified) | 1.67 µM (inactive) | 2.32 µM (inactive) | 2.03 µM (inactive) | 6.43 µM (inactive) | 1.86 µM (inactive) | 1.54 µM (inactive) | 0.223 µM (active) | 2.6 µM (inactive) | 1.51 µM (inactive) | 2.82 µM (inactive) | 1.92 µM (inactive) | 3.79 µM (inactive) | 1.79 µM (inactive) | 4.81 µM (inactive) | 3.58 µM (inactive) | 1.7 µM (inactive) | 1.63 µM (inactive) | 2.37 µM (inactive) | 2.69 µM (inactive) | 1.79 µM (inactive)
O=C1c2cc3c(cc2CC12Cc1ccc4c(c1C2=O)CCC4)CCCC3 (stereo unspecified) | > 100 µM (inactive) | > 100 µM (inactive) | > 100 µM (inactive) | > 100 µM (inactive) | > 100 µM (inactive) | > 100 µM (inactive) | > 100 µM (inactive) | > 100 µM (inactive) | > 100 µM (inactive) | > 100 µM (inactive) | > 100 µM (inactive) | > 100 µM (inactive) | > 100 µM (inactive) | > 100 µM (inactive) | 5.7 µM (inactive) | > 100 µM (inactive) | > 100 µM (inactive) | > 100 µM (inactive) | > 100 µM (inactive) | 
O=C1CC2(CCC(O)(c3ccc4ccccc4c3)C(C(=O)c3ccc4ccccc4c3)C2)C(=O)c2ccccc2N1 (stereo unspecified) | > 100 µM (inactive) | > 100 µM (inactive) | > 100 µM (inactive) | > 100 µM (inactive) | > 100 µM (inactive) | > 100 µM (inactive) | > 100 µM (inactive) | > 100 µM (inactive) | > 100 µM (inactive) | > 100 µM (inactive) | > 100 µM (inactive) | > 100 µM (inactive) | > 100 µM (inactive) | > 100 µM (inactive) | > 100 µM (inactive) | > 100 µM (inactive) | > 100 µM (inactive) | 29 µM (inactive) | > 100 µM (inactive) | > 100 µM (inactive)
C=C(/C=C/C=C(/CCC=C(C)C)COC(C)=O)[C@@H]1CC[C@]2([C@H](CCCO)/C(=C(/C)C=O)CC[C@]2(C)O)[C@@H]1O | 18.8 µM (inactive) | 2.92 µM (inactive) | 29.1 µM (inactive) | 14.2 µM (inactive) | 13.7 µM (inactive) | 17.7 µM (inactive) |  | 3.05 µM (inactive) | 10.4 µM (inactive) | 12.7 µM (inactive) | 0.912 µM (active) | 18.4 µM (inactive) | 2.42 µM (inactive) | 7.4 µM (inactive) | > 10 µM (inactive) | 3.27 µM (inactive) | 18.1 µM (inactive) | 0.414 µM (active) | 16.1 µM (inactive) | 15.8 µM (inactive)
C[N+]1(C)CN(c2ccccc2)C2(CCN(CCCC(=O)c3cccs3)CC2)C1=O | 82.6 µM (inactive) | 76 µM (inactive) | > 100 µM (inactive) | > 100 µM (inactive) | > 100 µM (inactive) | 42.4 µM (inactive) | 94.2 µM (inactive) | > 100 µM (inactive) | 58.1 µM (inactive) | 62.4 µM (inactive) | > 100 µM (inactive) | > 100 µM (inactive) | > 100 µM (inactive) | 65.9 µM (inactive) | 27.7 µM (inactive) | > 100 µM (inactive) | > 100 µM (inactive) | 57 µM (inactive) | > 100 µM (inactive) | > 100 µM (inactive)
